For the test, the system named is HIV-1 single-round infectious reporter virus. As to the kind of experiment: Single-round infectious HIV-1 reporter virus (luciferase) infection assay in HeLa CD4 cells. The conditions noted are these: Human immunodeficiency virus 1, HeLa, 72 h.
Setting [1] is: read-out: HIV_SC10PT (EC50, nM).
Where [2] appears, read: read-out: HIV_SC10PT (EC50, nM), group symbol.

Structures are written as SMILES. Read-outs that look alike come from different tables or passages of the source. A value given as a limit tells only on which side of the number the result lay.

Experimental: 2. Compound was added in a 2 μl dimethylsulfoxide solution, so that the final assay concentration would be ≦10 μM.
3. 100 μl of single-round infectious reporter virus in Dulbecco's Modified Eagle Medium was then added to the plated cells and compound at an approximate multiplicity of infection (MOI) of 0.01, resulting in a final volume of 200 μl per well.
4. Virally-infected cells were incubated at 37 degrees Celsius, in a CO2 incubator, and harvested 72 h after infection.
5. Viral infection was monitored by measuring luciferase expression from viral DNA in the infected cells using a luciferase reporter gene assay kit, as described by the manufacturer (Roche Molecular Biochemicals, Indianapolis, Ind.). Infected cell supernatants were removed and 50 μl of lysis buffer was added per well. After 15 minutes, 50 μl of freshly-reconstituted luciferase assay reagent was added per well. Luciferase activity was then quantified by measuring luminescence using a Wallac MICROBETA® scintillation counter.
7. An EC50 provides a method for comparing the antiviral potency of the compounds of this disclosure. The effective concentration for fifty percent inhibition (EC50) was calculated with the Microsoft Excel Xlfit curve fitting software.

The EC50 is the concentration giving half of the maximal effect. Turning to `COc1cnc(-n2cnc(C)n2)c2[nH]cc(C(=O)C(=O)N3CCc4c(cccc4-c4ccccc4)C3)c12` [Compound 1, 1-(4-methoxy-7-(3-methyl-1H-1,2,4-triazol-1-yl)-1H-pyrrolo[2,3-c]pyridin-3-yl)-2-(5-phenyl-3,4-dihydroisoquinolin-2(1H)-yl)ethane-1,2-dione], the EC50 under setting [1] was determined as 0.02 nM.
Take `COc1cnc(-n2cnc(C)n2)c2[nH]cc(C(=O)C(=O)N3CCc4c(cccc4-c4ccccn4)C3)c12` [Compound 2, 1-(4-methoxy-7-(3-methyl-1H-1,2,4-triazol-1-yl)-1H-pyrrolo[2,3-c]pyridin-3-yl)-2-(5-(pyridin-2-yl)-3,4-dihydroisoquinolin-2(1H)-yl)ethane-1,2-dione]: under setting [2], the concentration for a half-maximal effect (EC50) is less than 100 nM.
In the case of `CNC(=O)c1cc(-c2ncc(OC)c3c(C(=O)C(=O)N4CCc5c(cccc5-c5ccccn5)C4)c[nH]c23)n[nH]1` [Compound 4, 3-(4-methoxy-3-(2-oxo-2-(5-(pyridin-2-yl)-3,4-dihydroisoquinolin-2(1H)-yl)acetyl)-1H-pyrrolo[2,3-c]pyridin-7-yl)-N-methyl-1H-pyrazole-5-carboxamide], the half-maximal effective concentration (EC50) under setting [2] is less than 100 nM.
As for `CNC(=O)c1ncc(OC)c2c(C(=O)C(=O)N3CCc4c(cccc4-c4ccccn4)C3)c[nH]c12` [Compound 5, 4-methoxy-N-methyl-3-(2-oxo-2-(5-(pyridin-2-yl)-3,4-dihydroisoquinolin-2(1H)-yl)acetyl)-1H-pyrrolo[2,3-c]pyridine-7-carboxamide], the concentration for a half-maximal effect (EC50) under setting [2] was less than 100 nM.
`COc1cnc(C(=O)NCCO)c2[nH]cc(C(=O)C(=O)N3CCc4c(cccc4-c4ccccn4)C3)c12` [Compound 6, N-(2-hydroxyethyl)-4-methoxy-3-(2-oxo-2-(5-(pyridin-2-yl)-3,4-dihydroisoquinolin-2(1H)-yl)acetyl)-1H-pyrrolo[2,3-c]pyridine-7-carboxamide]: under setting [2], the concentration giving a half-maximal response (EC50) is less than 100 nM.
With `COc1cnc(-c2cc(C(=O)O)[nH]n2)c2[nH]cc(C(=O)C(=O)N3CCc4c(cccc4-c4ccccn4)C3)c12` [Compound 7, 3-(4-methoxy-3-(2-oxo-2-(5-(pyridin-2-yl)-3,4-dihydroisoquinolin-2(1H)-yl)acetyl)-1H-pyrrolo[2,3-c]pyridin-7-yl)-1H-pyrazole-5-carboxylic acid], the EC50 under setting [2] was less than 100 nM.
Turning to `COc1cnc(-c2cc(C(=O)N(C)C)[nH]n2)c2[nH]cc(C(=O)C(=O)N3CCc4c(cccc4-c4ccccn4)C3)c12` [Compound 8, 3-(4-methoxy-3-(2-oxo-2-(5-(pyridin-2-yl)-3,4-dihydroisoquinolin-2(1H)-yl)acetyl)-1H-pyrrolo[2,3-c]pyridin-7-yl)-N,N-dimethyl-1H-pyrazole-5-carboxamide], the 50% effective concentration (EC50) under setting [2] was less than 100 nM.
As for `COc1cnc(-c2cc(C(=O)NCCO)[nH]n2)c2[nH]cc(C(=O)C(=O)N3CCc4c(cccc4-c4ccccn4)C3)c12` [Compound 9, N-(2-hydroxyethyl)-3-(4-methoxy-3-(2-oxo-2-(5-(pyridin-2-yl)-3,4-dihydroisoquinolin-2(1H)-yl)acetyl)-1H-pyrrolo[2,3-c]pyridin-7-yl)-1H-pyrazole-5-carboxamide], the EC50 under setting [1] worked out at 0.17 nM.
`COc1cnc(-n2ccc(C(F)(F)F)n2)c2[nH]cc(C(=O)C(=O)N3CCc4c(cccc4-c4ccccn4)C3)c12` [Compound 10, 1-(4-methoxy-7-(3-(trifluoromethyl)-1H-pyrazol-1-yl)-1H-pyrrolo[2,3-c]pyridin-3-yl)-2-(5-(pyridin-2-yl)-3,4-dihydroisoquinolin-2(1H)-yl)ethane-1,2-dione]: the concentration giving a half-maximal response (EC50) under setting [2] was less than 100 nM.
As to `COc1cnc(-n2cncn2)c2[nH]cc(C(=O)C(=O)N3CCc4c(cccc4-c4ccccn4)C3)c12` [Compound 11, 1-(4-methoxy-7-(1H-1,2,4-triazol-1-yl)-1H-pyrrolo[2,3-c]pyridin-3-yl)-2-(5-(pyridin-2-yl)-3,4-dihydroisoquinolin-2(1H)-yl)ethane-1,2-dione], under setting [2], the EC50 is less than 100 nM.
For `COc1cnc(-n2cnc(C(F)(F)F)n2)c2[nH]cc(C(=O)C(=O)N3CCc4c(cccc4-c4ccccn4)C3)c12` [Compound 12, 1-(4-methoxy-7-(3-(trifluoromethyl)-1H-1,2,4-triazol-1-yl)-1H-pyrrolo[2,3-c]pyridin-3-yl)-2-(5-(pyridin-2-yl)-3,4-dihydroisoquinolin-2(1H)-yl)ethane-1,2-dione], the half-maximal effective concentration (EC50) under setting [2] is less than 100 nM.
For `COCc1ncnn1-c1ncc(OC)c2c(C(=O)C(=O)N3CCc4c(cccc4-c4ccccn4)C3)c[nH]c12` [Compound 13, 1-(4-methoxy-7-(5-(methoxymethyl)-1H-1,2,4-triazol-1-yl)-1H-pyrrolo[2,3-c]pyridin-3-yl)-2-(5-(pyridin-2-yl)-3,4-dihydroisoquinolin-2(1H)-yl)ethane-1,2-dione], the EC50 under setting [2] is less than 100 nM.
`COCc1ncn(-c2ncc(OC)c3c(C(=O)C(=O)N4CCc5c(cccc5-c5ccccn5)C4)c[nH]c23)n1` [Compound 14, 1-(4-methoxy-7-(3-(methoxymethyl)-1H-1,2,4-triazol-1-yl)-1H-pyrrolo[2,3-c]pyridin-3-yl)-2-(5-(pyridin-2-yl)-3,4-dihydroisoquinolin-2(1H)-yl)ethane-1,2-dione]: under setting [2], the EC50 is less than 100 nM.
`COc1cnc(-n2cnc(C(C)(F)F)n2)c2[nH]cc(C(=O)C(=O)N3CCc4c(cccc4-c4ccccn4)C3)c12` [Compound 17, 1-(7-(3-(1,1-difluoroethyl)-1H-1,2,4-triazol-1-yl)-4-methoxy-1H-pyrrolo[2,3-c]pyridin-3-yl)-2-(5-(pyridin-2-yl)-3,4-dihydroisoquinolin-2(1H)-yl)ethane-1,2-dione]: the concentration for a half-maximal effect (EC50) under setting [2] was less than 100 nM.
On to `COc1cnc(-n2ccnn2)c2[nH]cc(C(=O)C(=O)N3CCc4c(ncnc4-c4ccccn4)C3)c12` [Compound 19, 1-(4-methoxy-7-(1H-1,2,3-triazol-1-yl)-1H-pyrrolo[2,3-c]pyridin-3-yl)-2-(4-(pyridin-2-yl)-5,6-dihydropyrido[3,4-d]pyrimidin-7(8H)-yl)ethane-1,2-dione], for which, under setting [2], the EC50 was less than 100 nM.
Consider `COc1cnc(-c2cc(CO)[nH]n2)c2[nH]cc(C(=O)C(=O)N3CCc4c(ncnc4-c4ccccn4)C3)c12` [Compound 21, 1-(7-(5-(hydroxymethyl)-1H-pyrazol-3-yl)-4-methoxy-1H-pyrrolo[2,3-c]pyridin-3-yl)-2-(4-(pyridin-2-yl)-5,6-dihydropyrido[3,4-d]pyrimidin-7(8H)-yl)ethane-1,2-dione], for which, under setting [2], the concentration giving a half-maximal response (EC50) was less than 100 nM.
In the case of `COc1cnc(-c2cc(C(C)(C)O)[nH]n2)c2[nH]cc(C(=O)C(=O)N3CCc4c(ncnc4-c4ccccn4)C3)c12` [Compound 22, 1-(7-(5-(2-hydroxypropan-2-yl)-1H-pyrazol-3-yl)-4-methoxy-1H-pyrrolo[2,3-c]pyridin-3-yl)-2-(4-(pyridin-2-yl)-5,6-dihydropyrido[3,4-d]pyrimidin-7(8H)-yl)ethane-1,2-dione], the concentration for a half-maximal effect (EC50) under setting [2] was less than 100 nM.
Turning to `COc1cnc(-n2cnc(CO)n2)c2[nH]cc(C(=O)C(=O)N3CCc4c(ncnc4-c4ccccn4)C3)c12` [Compound 23, 1-(7-(3-(hydroxymethyl)-1H-1,2,4-triazol-1-yl)-4-methoxy-1H-pyrrolo[2,3-c]pyridin-3-yl)-2-(4-(pyridin-2-yl)-5,6-dihydropyrido[3,4-d]pyrimidin-7(8H)-yl)ethane-1,2-dione], the concentration giving a half-maximal response (EC50) under setting [2] was less than 100 nM.
Regarding `COc1cnc(-n2cnc(C(C)O)n2)c2[nH]cc(C(=O)C(=O)N3CCc4c(ncnc4-c4ccccn4)C3)c12` (stereo not shown) [Compound 24, 1-(7-(3-(1-hydroxyethyl)-1H-1,2,4-triazol-1-yl)-4-methoxy-1H-pyrrolo[2,3-c]pyridin-3-yl)-2-(4-(pyridin-2-yl)-5,6-dihydropyrido[3,4-d]pyrimidin-7(8H)-yl)ethane-1,2-dione], under setting [2], the EC50 was less than 100 nM.
In the case of `COc1cnc(-n2cnc(C)n2)c2[nH]cc(C(=O)C(=O)N3CCc4c(cc(C#N)c(=O)n4-c4ccccc4)C3)c12` [Compound 25, 6-(2-(4-methoxy-7-(3-methyl-1H-1,2,4-triazol-1-yl)-1H-pyrrolo[2,3-c]pyridin-3-yl)-2-oxoacetyl)-2-oxo-1-phenyl-1,2,5,6,7,8-hexahydro-1,6-naphthyridine-3-carbonitrile], the half-maximal effective concentration (EC50) under setting [2] was less than 100 nM.
For the molecule `COc1cnc(-n2cnc(C)n2)c2[nH]cc(C(=O)C(=O)N3CCc4c(ccnc4-c4ccccn4)C3)c12` [Compound 26, 1-(4-methoxy-7-(3-methyl-1H-1,2,4-triazol-1-yl)-1H-pyrrolo[2,3-c]pyridin-3-yl)-2-(5-(pyridin-2-yl)-3,4-dihydro-2,6-naphthyridin-2(1H)-yl)ethane-1,2-dione], under setting [2], the EC50 is less than 100 nM.
For the molecule `COc1cnc(-n2cnc(C)n2)c2[nH]cc(C(=O)C(=O)N3CCc4c(ccnc4-c4ccccc4)C3)c12` [Compound 27, 1-(4-methoxy-7-(3-methyl-1H-1,2,4-triazol-1-yl)-1H-pyrrolo[2,3-c]pyridin-3-yl)-2-(5-phenyl-3,4-dihydro-2,6-naphthyridin-2(1H)-yl)ethane-1,2-dione], under setting [2], the EC50 was less than 100 nM.
For the molecule `COc1cnc(-n2cnc(C)n2)c2[nH]cc(C(=O)C(=O)N3CCc4c(-c5ccccn5)cccc4C3O)c12` (stereo not shown) [Compound 28, 1-(1-hydroxy-5-(pyridin-2-yl)-3,4-dihydroisoquinolin-2(1H)-yl)-2-(4-methoxy-7-(3-methyl-1H-1,2,4-triazol-1-yl)-1H-pyrrolo[2,3-c]pyridin-3-yl)ethane-1,2-dione], the EC50 under setting [2] is less than 100 nM.
For `COc1cnc(-c2cc(CO)[nH]n2)c2[nH]cc(C(=O)C(=O)N3CCc4c(cccc4-c4ccccn4)C3)c12` [Compound 29, 1-(7-(5-(hydroxymethyl)-1H-pyrazol-3-yl)-4-methoxy-1H-pyrrolo[2,3-c]pyridin-3-yl)-2-(5-(pyridin-2-yl)-3,4-dihydroisoquinolin-2(1H)-yl)ethane-1,2-dione], under setting [2], the EC50 was less than 100 nM.
With `COc1cnc(Cl)c2[nH]cc(C(=O)C(=O)N3CCc4c(cccc4-c4ccccn4)C3)c12` [Compound 30, 1-(7-chloro-4-methoxy-1H-pyrrolo[2,3-c]pyridin-3-yl)-2-(5-(pyridin-2-yl)-3,4-dihydroisoquinolin-2(1H)-yl)ethane-1,2-dione], the 50% effective concentration (EC50) under setting [1] was found to be 171 nM.

The values are drawn from patent US8242124B2, “Diketopiperidine derivatives as HIV attachment inhibitors” (priority 2008, dated 2012).
